Test results reported in patent US11000033B2, “Ketone or oxime compound, and herbicide” (NISSAN CHEMICAL CORPORATION, priority 2014, dated 2021).

Tests used:
Type in all cases: in vivo
Stellaria media = experiment: Test Example 4: herbicidal effect by soil treatment (symbol P); conditions: application herbicide amount 320 g/ha
In short: (§1)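 Seeds were sown in sterilized diluvial soil, covered with about 1.5 cm of soil, and the soil surface was sprayed with a water-diluted emulsion of the compound at a predetermined rate. Plants grew in a greenhouse at 25° C. to 30° C.; effects were scored visually 3 weeks after application.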

wheat [1] = experiment: Test Example 5: effect on crop by foliage application, plastic box (symbol e); conditions: 320 g/ha, 3 weeks after application
In short: (§2)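 A greenhouse held between 25° C. and 30° C. was used to grow plants sown spot-wise, beneath ~1.5 cm of soil, in boxes of sterilized diluvial soil.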

wheat [2] = experiment: Test Example 4: effect on crop by soil treatment (symbol e); conditions: application herbicide amount 320 g/ha
In short: (§3)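 Plants are raised in a greenhouse (25° C. to 30° C.) from spot-sown seed, which sits under about 1.5 cm of sterilized diluvial soil in a box shared with weed species.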

soybean [3] = experiment: Test Example 5: effect on crop by foliage application, plastic box (symbol d); conditions: 320 g/ha, 3 weeks after application
In short: as §2

rice = experiment: Test Example 4: effect on crop by soil treatment (symbol b); conditions: application herbicide amount 320 g/ha
In short: as §3

Setaria viridis [4] = experiment: Test Example 4: herbicidal effect by soil treatment (symbol G); conditions: application herbicide amount 320 g/ha
In short: as §1

Alopecurus myosuroides [5] = experiment: Test Example 5: herbicidal effect by foliage application, plastic box (symbol J); conditions: 320 g/ha, 3 weeks after application
In short: (§4)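 Herbicide, formulated as an emulsion and diluted in water, is sprayed onto the aerial parts of 14-day seedlings. These were grown at 25° C. to 30° C. in sterilized diluvial soil; effects are graded after 3 weeks.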

Abutilon theophrasti = experiment: Test Example 4: herbicidal effect by soil treatment (symbol M); conditions: application herbicide amount 320 g/ha
In short: as §1

corn = experiment: Test Example 4: effect on crop by soil treatment (symbol c); conditions: application herbicide amount 320 g/ha
In short: as §3

[6] = tested on: Echinochloa crus-galli var. crus-galli; experiment: Test Example 5: herbicidal effect by foliage application, plastic box (symbol H); conditions: 320 g/ha, 3 weeks after application
In short: as §4

Setaria viridis [7] = experiment: Test Example 5: herbicidal effect by foliage application, plastic box (symbol G); conditions: 320 g/ha, 3 weeks after application
In short: as §4

Galium spurium [8] = experiment: Test Example 4: herbicidal effect by soil treatment (symbol Q); conditions: application herbicide amount 320 g/ha
In short: as §1

Avena fatua = experiment: Test Example 4: herbicidal effect by soil treatment (symbol I); conditions: application herbicide amount 320 g/ha
In short: as §1

rice plant = experiment: Test Example 5: effect on crop by foliage application, plastic box (symbol b); conditions: 320 g/ha, 3 weeks after application
In short: as §2

Scirpus juncoides = experiment: Test Example 1: herbicidal activity, application before weed generation in submerged conditions (symbol B); conditions: application herbicide amount 320 g/ha
In short: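 Pre-emergence, paddy conditions: emulsifiable formulation diluted in water, dosed onto floodwater (4 cm depth) on sowing day. Alluvial soil; weeds sown mixed; rice transplanted at 2.5-leaf stage. Greenhouse 25–30 °C, 3 wk. Score 0–5 (5 = ≥90% kill, 0 = ≤5%).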

Digitaria ciliaris = experiment: Test Example 5: herbicidal effect by foliage application, plastic box (symbol F); conditions: 320 g/ha, 3 weeks after application
In short: as §4

Galium spurium [9] = experiment: Test Example 5: herbicidal effect by foliage application, plastic box (symbol Q); conditions: 320 g/ha, 3 weeks after application
In short: as §4

soybean [10] = experiment: Test Example 4: effect on crop by soil treatment (symbol d); conditions: application herbicide amount 320 g/ha
In short: as §3

Lolium multiflorum Lam. = experiment: Test Example 4: herbicidal effect by soil treatment (symbol K); conditions: application herbicide amount 320 g/ha
In short: as §1

Amaranthus retroflexus [11] = experiment: Test Example 5: herbicidal effect by foliage application, plastic box (symbol N); conditions: 320 g/ha, 3 weeks after application
In short: as §4

Alopecurus myosuroides [12] = experiment: Test Example 4: herbicidal effect by soil treatment (symbol J); conditions: application herbicide amount 320 g/ha
In short: as §1

Amaranthus retroflexus [13] = experiment: Test Example 4: herbicidal effect by soil treatment (symbol N); conditions: application herbicide amount 320 g/ha
In short: as §1

SMILES | P: Stellaria media, herbicidal effect grade (Stellaria media) | e: wheat, effect on crop (criteria of Test Example 1) (wheat [1]) | e: wheat, effect on crop grade (wheat [2]) | d: soybean, effect on crop (criteria of Test Example 1) (soybean [3]) | b: directly sowed rice plant, effect on crop grade (rice) | G: Setaria viridis, herbicidal effect grade (Setaria viridis [4]) | J: Alopecurus myosuroides, herbicidal effect (criteria of Test Example 1) (Alopecurus myosuroides [5]) | M: Abutilon theophrasti, herbicidal effect grade (Abutilon theophrasti) | c: corn, effect on crop grade (corn) | H: Echinochloa crus-galli var. crus-galli, herbicidal effect (criteria of Test Example 1) [6] | G: Setaria viridis, herbicidal effect (criteria of Test Example 1) (Setaria viridis [7]) | Q: Galium spurium, herbicidal effect grade (Galium spurium [8]) | I: Avena fatua, herbicidal effect grade (Avena fatua) | b: directly sowed rice plant, effect on crop (criteria of Test Example 1) (rice plant) | Herbicidal effect grade, B: Scirpus juncoides (Scirpus juncoides) | F: Digitaria ciliaris, herbicidal effect (criteria of Test Example 1) (Digitaria ciliaris) | Q: Galium spurium, herbicidal effect (criteria of Test Example 1) (Galium spurium [9]) | d: soybean, effect on crop grade (soybean [10]) | K: Lolium multiflorum Lam., herbicidal effect grade (Lolium multiflorum Lam.) | N: Amaranthus retroflexus, herbicidal effect (criteria of Test Example 1) (Amaranthus retroflexus [11]) | also measured
CON=C(C)CC1CC(O)=C(c2c(C)cc(-c3ncccn3)cc2C)C1=O (mixture of isomers) [6-057] | 0 (Herbicidal ratio of 5% or lower (almost no effect)) | 5 (Herbicidal ratio of 90% or more (almost completely withered)) | 1 (Herbicidal ratio of 5% or higher and lower than 20%) | 3 (Herbicidal ratio of 40% or higher and lower than 70%) | 5 (Herbicidal ratio of 90% or more (almost completely withered)) | 5 (Herbicidal ratio of 90% or more (almost completely withered)) | 5 (Herbicidal ratio of 90% or more (almost completely withered)) | 0 (Herbicidal ratio of 5% or lower (almost no effect)) | 1 (Herbicidal ratio of 5% or higher and lower than 20%) | 5 (Herbicidal ratio of 90% or more (almost completely withered)) | 5 (Herbicidal ratio of 90% or more (almost completely withered)) | 0 (Herbicidal ratio of 5% or lower (almost no effect)) | 0 (Herbicidal ratio of 5% or lower (almost no effect)) | 5 (Herbicidal ratio of 90% or more (almost completely withered)) | 3 (Herbicidal ratio of 40% or higher and lower than 70%) | 5 (Herbicidal ratio of 90% or more (almost completely withered)) | 3 (Herbicidal ratio of 40% or higher and lower than 70%) | 0 (Herbicidal ratio of 5% or lower (almost no effect)) | 5 (Herbicidal ratio of 90% or more (almost completely withered)) | 1 (Herbicidal ratio of 5% or higher and lower than 20%) | J: Alopecurus myosuroides, herbicidal effect grade (Alopecurus myosuroides [12]): 3 (Herbicidal ratio of 40% or higher and lower than 70%); N: Amaranthus retroflexus, herbicidal effect grade (Amaranthus retroflexus [13]): 0 (Herbicidal ratio of 5% or lower (almost no effect))
CON=C(C)CC1CC(OC(=O)N2CCOCC2)=C(c2c(C)cc(-c3ccc(F)cc3)cc2C)C1=O (mixture of isomers) [6-059] | 0 (Herbicidal ratio of 5% or lower (almost no effect)) | 5 (Herbicidal ratio of 90% or more (almost completely withered)) | 0 (Herbicidal ratio of 5% or lower (almost no effect)) | 0 (Herbicidal ratio of 5% or lower (almost no effect)) | 0 (Herbicidal ratio of 5% or lower (almost no effect)) | 5 (Herbicidal ratio of 90% or more (almost completely withered)) | 5 (Herbicidal ratio of 90% or more (almost completely withered)) | 0 (Herbicidal ratio of 5% or lower (almost no effect)) | 0 (Herbicidal ratio of 5% or lower (almost no effect)) | 5 (Herbicidal ratio of 90% or more (almost completely withered)) | 5 (Herbicidal ratio of 90% or more (almost completely withered)) | 3 (Herbicidal ratio of 40% or higher and lower than 70%) | 3 (Herbicidal ratio of 40% or higher and lower than 70%) | 5 (Herbicidal ratio of 90% or more (almost completely withered)) | 5 (Herbicidal ratio of 90% or more (almost completely withered)) | 5 (Herbicidal ratio of 90% or more (almost completely withered)) | 4 (Herbicidal ratio of 70% or higher and lower than 90%) | 0 (Herbicidal ratio of 5% or lower (almost no effect)) | 1 (Herbicidal ratio of 5% or higher and lower than 20%) | 5 (Herbicidal ratio of 90% or more (almost completely withered)) | J: Alopecurus myosuroides, herbicidal effect grade (Alopecurus myosuroides [12]): 5 (Herbicidal ratio of 90% or more (almost completely withered)); N: Amaranthus retroflexus, herbicidal effect grade (Amaranthus retroflexus [13]): 0 (Herbicidal ratio of 5% or lower (almost no effect))
CON=C(C)CC1CC(OS(=O)(=O)N(C)C)=C(c2c(C)cc(-c3ccc(F)cc3)cc2C)C1=O (mixture of isomers) [6-060] | 0 (Herbicidal ratio of 5% or lower (almost no effect)) | 4 (Herbicidal ratio of 70% or higher and lower than 90%) | 0 (Herbicidal ratio of 5% or lower (almost no effect)) | 1 (Herbicidal ratio of 5% or higher and lower than 20%) | 3 (Herbicidal ratio of 40% or higher and lower than 70%) | 5 (Herbicidal ratio of 90% or more (almost completely withered)) | 5 (Herbicidal ratio of 90% or more (almost completely withered)) | 0 (Herbicidal ratio of 5% or lower (almost no effect)) | 0 (Herbicidal ratio of 5% or lower (almost no effect)) | 5 (Herbicidal ratio of 90% or more (almost completely withered)) | 4 (Herbicidal ratio of 70% or higher and lower than 90%) | 0 (Herbicidal ratio of 5% or lower (almost no effect)) | 0 (Herbicidal ratio of 5% or lower (almost no effect)) | 5 (Herbicidal ratio of 90% or more (almost completely withered)) | 5 (Herbicidal ratio of 90% or more (almost completely withered)) | 5 (Herbicidal ratio of 90% or more (almost completely withered)) | 4 (Herbicidal ratio of 70% or higher and lower than 90%) | 0 (Herbicidal ratio of 5% or lower (almost no effect)) | 3 (Herbicidal ratio of 40% or higher and lower than 70%) | 4 (Herbicidal ratio of 70% or higher and lower than 90%) | J: Alopecurus myosuroides, herbicidal effect grade (Alopecurus myosuroides [12]): 3 (Herbicidal ratio of 40% or higher and lower than 70%); N: Amaranthus retroflexus, herbicidal effect grade (Amaranthus retroflexus [13]): 5 (Herbicidal ratio of 90% or more (almost completely withered))
